Source: US5498627A, “Octahydro-2-naphthalenecarboxylic acid derivative, its production and use” (Takeda Chemical Industries, Ltd., priority 1994, dated 1996)
≈ marks a conversion by molar mass, not a printed value.

What was measured:
Farnesyltransferase = molecular target: T1, Farnesyltransferase (Rattus norvegicus, UniProt Q02293+Q04631); test: Farnesyltransferase-inhibitory test (FT Assay Kit, SPA); format: biochemical; details: crude enzyme from rat brains; biotin-modified human lamin B C-terminal peptide, 3H-farnesylpyrophosphate; 37° C., 1 hour; read-out: concentration inhibiting farnesyltransferase activity by 50% (converted)
T1 construct: Farnesyltransferase was prepared from rat brains; from tissue; host or cells: brain of male SD rats, 6 weeks old (Charles River); dialysed 30-50% ammonium sulfate fraction, crude enzyme solution
Procedure: Farnesyltransferase was prepared from rat brains according to the method of Y. Reiss et al. (Cell 62, 81 (1990)) and all of the following procedures were performed at 4° C. That is, brains were removed from SD rats (male, 6 weeks old, Charles River) and sliced with a pair of scissors. Then 50 mM tris-hydrochloric acid buffer (pH 7.5)(2 ml per brain) containing 1 mM EDTA, 1 mM EGTA, 0.2 mM phenylmethylsulfonyl fluoride and 0.1 mM leupeptin was added. The mixture was homogenized with a Teflon homogenizer (manufactured by Hamada Rika, Japan) in ice. The extract was centrifuged at 60,000×g for 70 minutes. From the resulting supernatant, the precipitate fraction from 30 to 50 W/V % concentration of ammonium sulfate was recovered, and dialyzed overnight against 20 mM tris-hydrochloric acid buffer (pH 7.5) containing 1 mM dithiothreitol and 20 μM zinc chloride. The dialysed solution was centrifuged at 15,000×g for 10 minutes. […]
Farnesyltransferase activity was determined using FT Assay Kit (manufactured by Amersham) as follows. […] The radioactivity produced by attachment of the ^3 H-farnesylated peptide to the SPA beads was measured with a scintillation counter to determine the amount of the ^3 H-farnesylated peptide. The farnesyltransferase-inhibitory activity of the compound TAN-1813 was calculated from the counts in the presence and absence of the compound TAN-1813.

NIH3T3/K-ras cells = test: Cell growth-inhibitory test (MTT); format: cell-based; details: Mus musculus, NIH3T3, 72 h, 3 days incubation, read-out: concentration inhibiting the growth of NIH3T3/K-ras cells by 50%
Procedure: The cell growth-inhibitory activity of the compound TAN-1813 was determined according to a modified method of Mosmann (Journal of Immunological Methods 65, 55 (1983) ) by using a K-ras transformant (NIH3T3/K-ras) of mouse embryonic fibroblast strain NIH3T3. That is, NIH3T3/K-ras cells were suspended in a medium at a cell density of 3×10^4 /ml. The suspension (0.1 ml per well) was dispensed into each well of a 96-well flat-bottomed plate (manufactured by Nunc) containing a solution (10 μl) of varying concentrations of the compound TAN-1813 dissolved in phosphate-buffered saline (PBS). The medium was Dulbecco modified Eagle's minimum essential medium (Whittaker Bioproducts, U.S.A.) containing 10 V/V % fetal calf serum (FCS, Whittaker Bioproducts, U.S.A.). The above plate was incubated for 3 days at 37° C. and 5% CO2. Then, 25 μl of tetrazolium salt MTT (Sigma, U.S.A.) solution (5 mg/ml) dissolved in PBS was added to each well. After incubation for 4 hours, 0.1 ml of 10% SDS solution dissolved in 0.01N hydrochloric acid was added to each well, and the plate was incubated overnight at 37° C. and 5% CO2. Absorbance at 620 nm was measured using Titertek Multiscan Spectrophotometer (Flow, U.S.A.). The growth inhibitory activity (%) was calculated from the absorbance values in the presence and absence of the compound TAN-1813.

[1] = system: human fibrosarcoma strain HT-1080; test: In vivo tumor growth inhibitory test; details: 50 mg/kg subcutaneously daily for 4 days beginning 10 days after transplantation; tumor size 18 days after transplantation; HT-1080 in nude mice
Procedure: Cells of human fibrosarcoma strain HT-1080 (2×10^6 cells per mouse) were subcutaneously transplanted to nude mice. Three mice were used for each treated group. The compound TAN-1813 (50 mg/kg) was subcutaneously administered to the mice daily for 4 days beginning 10 days after the transplantation. Anti-tumor activity was evaluated by measuring tumor size 18 days after the transplantation of the cancer cells. Average tumor sizes of 3 mice in the untreated (C) and the compound TAN-1813-treated (T) group were measured, to determine the tumor growth inhibitory activity. The tumor size (mm^3) was calculated from the formula: 0.5×a×b^2 by measuring the major axis (mm) (a) and minor axis (mm) (b) with a calibrater.

Solubility = format: physicochemical

IC50 (Farnesyltransferase): 26.2 µM | Solubility (Solubility; in methanol, ethyl acetate, chloroform, and dimethyl sulfoxide): Readily soluble | Solubility (Solubility; in water, and hexane): Slightly soluble
Structure (SMILES): C=CC(CCCCC)C1=C(C(=O)C2C(C)C=CC3(O)CC(C(=O)O)CC(C)C23)C(=O)NC1=O (centres unmarked) [TAN-1813, 5-[2,5-dihydro-4-(1-octen-3-yl)-2,5-dioxo-1H-pyrrole-3-carbonyl]-8a-hydroxy-4,6-dimethyl-1,2,3,4,4a,5,6,8a-octahydro-2-naphthalenecarboxylic acid]
IC50 (NIH3T3/K-ras cells): 0.4 µg/mL (≈ 0.874 µM) | tumor size ratio (T/C×100) [1]: 46%
